Patent US4621090A, “Antifungal compositions” (Toyo Soda Manufacturing Co., Ltd., priority 1983, dated 1986)
In brackets after ≈: the same amount, converted by molar mass. Like-named read-outs stand apart in the source and are kept apart here.

Key:
Format in all cases: cell-based
[1] = tested on: Trichophyton mentagraphytes MTU-19024; test: Minimum inhibitory concentration, anti-Trichophyton mentagraphytes activity test, strain MTU-19024; settings: 27° C., a week; for MIC: Trichophyton, MTU19024, Sabouraud's dextrose agar
Protocol: (§1) The activity was tested by the 10 time-step dilution test, using the Sabouraud's dextrose agar culture medium (2% dextrose, 1% pepton and 1.5% agar; pH 6.5±). A platinum loopful (about 10 μl) spore suspension (prepared from a reserved strain of Trichlophyton mentagraphytes and containing 1×10^6 cells/ml) was applied in the form of drawn lines on a plate of a culture medium containing the active ingredients. The culture medium plate was kept at 27° C. for a week and then visually observed to see if any colonies had formed. The minimum inhibitory concentration was defined as the minimum concentration with which formation of distinct colonies on the culture medium plate was not observed.

[2] = tested on: Trichophyton mentagraphytes MTU-19031; test: Minimum inhibitory concentration, anti-Trichophyton mentagraphytes activity test, strain MTU-19031; settings: 27° C., a week; for MIC: Trichophyton, MTU19031, Sabouraud's dextrose agar
Protocol: as §1

[3] = tested on: Trichophyton violaceum MTU-19021; test: Growth inhibition test; settings: read-out: Minimum inhibitory concentration
[4] = tested on: Microsporum canis MTU-20010; test: Growth inhibition test; settings: read-out: Minimum inhibitory concentration
[5] = tested on: Microsporum gypseum MTU-20005; test: Growth inhibition test; settings: Nannizzia gypsea, read-out: Minimum inhibitory concentration
[6] = tested on: Epidermophyton floccosum MTU-21007; test: Growth inhibition test; settings: MTU21007, 336 h, after 14 days cultivation at 27° C., read-out: Minimum inhibitory concentration
[7] = MTU19021, 168 h, after 7 days cultivation at 27° C.
[8] = MTU19021, 336 h, after 14 days cultivation at 27° C.
[9] = MTU20010, 168 h, after 7 days cultivation at 27° C.
[10] = MTU20010, 336 h, after 14 days cultivation at 27° C.
[11] = MTU20005, 168 h, after 7 days cultivation at 27° C.
[12] = MTU20005, 336 h, after 14 days cultivation at 27° C.

Row | Compound | MIC [1] [µg/mL] | MIC [2] [µg/mL] | further results
1 | COc1cccc(N(C)C(=S)Oc2ccc3c(c2)C2CCC3C2)n1 (stereo not shown) [compound 12, O--1,4-Methano-1,2,3,4-tetrahydro-6-naphthyl N--(6-methoxy-2-pyridyl)-N--methylthiocarbamate] | 0.5 (≈ 1.47 µM) | 0.5 (≈ 1.47 µM) | 
2 | Cc1ccc(N(C)C(=S)Oc2ccc3c(c2)CCCC3)nc1C [compound 27, O--5,6,7,8-Tetrahydro-2-naphthyl N--methyl-N--(5,6-dimethyl-2-pyridyl)-thiocarbamate] | 0.5 (≈ 1.53 µM) | 0.5 (≈ 1.53 µM) | 
3 | Cc1ccc(N(C)C(=S)Oc2ccc3c(c2)CCC3)nc1C [compound 26, O--5-Indanyl N--methyl-N--(5,6-dimethyl-2-pyridyl)thiocarbamate] | 0.5 (≈ 1.6 µM) | 0.5 (≈ 1.6 µM) | 
4 | Cc1cc(C)nc(N(C)C(=S)Oc2ccc3ccccc3c2)c1 [compound 14, O--2-Naphthyl N--methyl-N--(4,6,-dimethyl-2-pyridyl)thiocarbamate] | 0.5 (≈ 1.55 µM) | 0.5 (≈ 1.55 µM) | 
5 | CN(C)c1cccc(N(C)C(=S)Oc2ccc(C(C)(C)C)cc2)n1 [compound 36, O--4-t-Butylphenyl N--methyl-N--(6-dimethylamino-:2-pyridyl)-thiocarbamate] | 0.5 (≈ 1.46 µM) | 0.5 (≈ 1.46 µM) | 
6 | Cc1ccc(N(C)C(=S)Oc2ccc3ccccc3c2)nc1C [compound 25, O--2-Naphthyl N--methyl-N--(5,6-dimethyl-2-pyridyl)thiocarbamate] | 0.5 (≈ 1.55 µM) | 0.5 (≈ 1.55 µM) | 
7 | CCC(C)(C)c1ccc(OC(=S)N(C)c2cccc(OC)n2)cc1 [compound 19, O--4-t-Pentylphenyl N--(6-methoxy-2-pyridyl)-N--methylthiocarbamate] | 0.5 (≈ 1.45 µM) | 0.5 (≈ 1.45 µM) | 
8 | COc1cccc(N(C)C(=S)Oc2ccc(C)cc2)n1 [compound 53, O--4-Methylphenyl N--(6-methoxy-2-pyridyl)-N--methylthiocarbamate] | 0.5 (≈ 1.73 µM) | 0.5 (≈ 1.73 µM) | 
9 | COc1cccc(N(C)C(=S)Oc2ccc(C)c(C)c2)n1 [compound 22, O--3,4-Dimethylphenyl N--(6-methoxy-2-pyridyl)-N--methylthiocarbamate] | 0.5 (≈ 1.65 µM) | 0.5 (≈ 1.65 µM) | 
10 | COc1cccc(N(C)C(=S)Oc2ccc(Cl)c(Cl)c2)n1 [compound 50, O--3,4-Dichlorophenyl N--(6-methoxy-2-pyridyl)-N--methylthiocarbamate] | 0.5 (≈ 1.46 µM) | 0.5 (≈ 1.46 µM) | 
11 | Cc1cc(C)nc(N(C)C(=S)Oc2ccc3c(c2)CCC3)c1 [compound 15, O--5-Indanyl N--methyl-N--(4,6-dimethyl-2-pyridyl)thiocarbamate] | 0.5 (≈ 1.6 µM) | 0.5 (≈ 1.6 µM) | 
12 | COc1cccc(N(C)C(=S)Oc2ccc(SC)cc2)n1 [compound 62, O--4-Methylthiophenyl N--(6-methoxy-2-pyridyl)-N--methylthiocarbamate] | 0.5 (≈ 1.56 µM) | 0.05 (≈ 0.156 µM) | 
13 | CN(C)c1cccc(N(C)C(=S)Oc2ccc(C(F)(F)F)cc2)n1 [compound 68, O--4-Trifluoromethylphenyl N--(6-dimethylamino-2-pyridyl)-N--methylthiocarbamate] | 0.5 (≈ 1.41 µM) | 0.5 (≈ 1.41 µM) | 
14 | C=C(C)c1ccc(OC(=S)N(C)c2cccc(OC)n2)cc1 [compound 56, O--4-Isopropenylphenyl N--(6-methoxy-2-pyridyl)-N--methylthiocarbamate] | 0.5 (≈ 1.59 µM) | 0.5 (≈ 1.59 µM) | 
15 | CNc1cccc(N(C)C(=S)Oc2ccc(C(C)(C)C)cc2)n1 [compound 58, O--4-t-Butylphenyl N--methyl-N--(6-methylamino-2-pyridyl)thiocarbamate] | 0.5 (≈ 1.52 µM) | 0.5 (≈ 1.52 µM) | 
16 | COc1cccc(N(C)C(=S)Oc2ccc(C(C)C)c(C)c2)n1 [compound 41, O--4-Isopropyl-3-methylphenyl N--(6-methoxy-2-pyridyl)-N--methylthiocarbamate] | 0.5 (≈ 1.51 µM) | 0.5 (≈ 1.51 µM) | 
17 | COc1cccc(N(C)C(=S)Oc2ccc(C(C)C)cc2)n1 [compound 30, O--4-Isopropylphenyl N--(6-methoxy-2-pyridyl)-N--methylthiocarbamate] | 0.5 (≈ 1.58 µM) | 0.5 (≈ 1.58 µM) | 

Row | Compound | MIC [1] [µg/mL] | MIC [2] [µg/mL] | further results
18 | CN(C)c1cccc(N(C)C(=S)Oc2ccc3ccccc3c2)n1 [compound 35, O--2-Naphthyl N--methyl-N--(6-dimethylamino-2-pyridyl)-thiocarbamate] | 0.5 (≈ 1.48 µM) | 0.5 (≈ 1.48 µM) | 
19 | COc1cccc(N(C)C(=S)Oc2ccc3c(c2)C2CCC3CC2)n1 [compound 21, O--1,4-Ethano-1,2,3,4-tetrahydro-6-naphthyl N--(6-methoxy-2-pyridyl)-N--methylthiocarbamate] | 0.5 (≈ 1.41 µM) | 0.5 (≈ 1.41 µM) | 
20 | O--Methyl-4-nitrophenyl N--(6-methoxy-2-pyridyl)-N--methylthiocarbamate [compound 66] |  |  | Minimum inhibitory concentration ([1]; Sabouraud's dextrose agar): 0.5 µg/mL; Minimum inhibitory concentration ([2]; Sabouraud's dextrose agar): 0.5 µg/mL
21 | Cc1cccc(N(C)C(=S)Oc2ccc3ccccc3c2)n1 [Compound No. 2, O-2-Naphthyl N-methyl-N-(6-methyl-2-pyridyl)thiocarbamate] | 0.5 (≈ 1.62 µM) | 0.5 (≈ 1.62 µM) | 
22 | CCc1ccc(OC(=S)N(C)c2cccc(OC)n2)cc1C [compound 39, O--4-Ethyl-3-methylphenyl N--(6-methoxy-2-pyridyl)-N--methylthiocarbamate] | 0.5 (≈ 1.58 µM) | 0.5 (≈ 1.58 µM) | 
23 | CCCc1ccc(OC(=S)N(C)c2cccc(OC)n2)cc1 [compound 65, O--4-Propylphenyl N--(6-methoxy-2-pyridyl)-N--methylthiocarbamate] | 0.5 (≈ 1.58 µM) | 0.5 (≈ 1.58 µM) | 
24 | CCc1ccc(OC(=S)N(C)c2cccc(OC)n2)cc1 [compound 33, O--4-Ethylphenyl N--(6-methoxy-2-pyridyl)-N--methylthiocarbamate] | 0.5 (≈ 1.65 µM) | 0.05 (≈ 0.165 µM) | 
25 | COc1cccc(N(C)C(=S)Oc2cccc(C(C)(C)C)c2)n1 [compound 28, O--3-t-Butylphenyl N--(6-methoxy-2-pyridyl)-N--methylthiocarbamate] | 0.5 (≈ 1.51 µM) | 0.5 (≈ 1.51 µM) | MIC [3, 7]: 0.5 µg/mL (≈ 1.51 µM); MIC [3, 8]: 0.5 µg/mL (≈ 1.51 µM); MIC [4, 9]: 0.5 µg/mL (≈ 1.51 µM); MIC [4, 10]: 0.5 µg/mL (≈ 1.51 µM); MIC [5, 11]: 0.5 µg/mL (≈ 1.51 µM); MIC [5, 12]: 0.5 µg/mL (≈ 1.51 µM); MIC [6]: 0.5 µg/mL (≈ 1.51 µM)
26 | COc1cccc(N(C)C(=S)Oc2ccc(C(F)(F)F)cc2)n1 [compound 43, O-- 4-Trifluoromethylphenyl N--(6-methoxy-2-pyridyl)-N--methylthiocarbamate] | 0.5 (≈ 1.46 µM) | 0.05 (≈ 0.146 µM) | 
27 | COc1cccc(N(C)C(=S)Oc2ccc(Br)cc2)n1 [compound 34, O--4-Bromophenyl N--(6-methoxy-2-pyridyl)-N--methylthiocarbamate] | 0.5 (≈ 1.42 µM) | 0.05 (≈ 0.142 µM) | 
28 | COc1cccc(N(C)C(=S)Oc2ccc(Cl)c(C)c2)n1 [compound 38, O--4-Chloro-3-methylphenyl N--(6-methoxy-2-pyridyl)-N--methylthiocarbamate] | 0.5 (≈ 1.55 µM) | 0.05 (≈ 0.155 µM) | 
29 | COc1cccc(N(C)C(=O)Oc2ccc3c(c2)C2CCC3C2)n1 (stereo not shown) [compound 13, 1,4-Methano-1,2,3,4-tetrahydro-6-naphthyl N--(6-methoxy-2-pyridyl)-N--methylcarbamate] | 0.5 (≈ 1.54 µM) | 0.5 (≈ 1.54 µM) | 
30 | COc1cccc(N(C)C(=S)Oc2ccc(C(C)(C)C)cc2)n1 [compound 16, O--4-t-Butylphenyl N--(6-methoxy-2-pyridyl)-N--methylthiocarbamate] | 0.5 (≈ 1.51 µM) | 0.5 (≈ 1.51 µM) | 
31 | Cc1cccc(N(C)C(=S)Oc2ccc3c(c2)CCCC3)n1 [compound 8, O--5,6,7,8-Tetrahydro-2-naphthyl N--methyl-N--(6-methyl-2-pyridyl)thiocarbamate] | 0.5 (≈ 1.6 µM) | 0.5 (≈ 1.6 µM) | 
32 | COc1cccc(N(C)C(=S)Oc2cccc(C(C)C)c2)n1 [compound 48, O--3-Isopropylphenyl N--(6-methoxy-2-pyridyl)-N--methylthiocarbamate] | 0.5 (≈ 1.58 µM) | 0.5 (≈ 1.58 µM) | MIC [3, 7]: 0.5 µg/mL (≈ 1.58 µM); MIC [3, 8]: 0.5 µg/mL (≈ 1.58 µM); MIC [4, 9]: 0.5 µg/mL (≈ 1.58 µM); MIC [4, 10]: 0.5 µg/mL (≈ 1.58 µM); MIC [5, 11]: 0.5 µg/mL (≈ 1.58 µM); MIC [5, 12]: 0.5 µg/mL (≈ 1.58 µM); MIC [6]: 0.5 µg/mL (≈ 1.58 µM)
33 | COc1cccc(N(C)C(=S)Oc2ccc(Br)c(C)c2)n1 [compound 46, O--4-Bromo-3-methylphenyl N--(6-methoxy-2-pyridyl)-N--methylthiocarbamate] | 0.5 (≈ 1.36 µM) | 0.5 (≈ 1.36 µM) | 
34 | COc1cccc(N(C)C(=S)Oc2ccc(SC)c(C)c2)n1 [compound 67, O--3-Methyl-4-methylthiophenyl N--(6-methoxy-2-pyridyl)-N--methylthiocarbamate] | 0.5 (≈ 1.49 µM) | 0.5 (≈ 1.49 µM) | 
